Measurements from the NIST ThermoML archive (doi:10.1016/j.fluid.2014.12.003).
Numbers after ± are expanded uncertainties.

Details: 298.15 K; 101.33 kPa; Liquid; Vibrating tube method

| Structure (SMILES) | mass density [kg/m3] |
| --- | --- |
| CCCC[N+]1(C)CCCC1.N#CC(=C=[N-])C#N [1-butyl-1-methylpyrrolidinium tricyanomethanide] | 1006.75 ± 1.3 |
| CCCC[N+]1(C)CCOCC1.N#C[C-](C#N)C#N [4-butyl-4-methylmorpholinium tricyanomethanide] | 1067.06 ± 1.3 |
| c1ccccc1 [benzene] | 873.53 ± 1 |
| CCCCCCCCCCO [decan-1-ol] | 826.38 ± 1 |
| CCc1ccccc1 [ethylbenzene] | 862.97 ± 1 |
| CCCCCCC [heptane] | 679.55 ± 1 |
| CCCCCCO [hexan-1-ol] | 814.94 ± 1 |
| CCCCCCCCO [octan-1-ol] | 823.27 ± 1 |
| c1ccsc1 [thiophene] | 1058.48 ± 1 |
| Cc1ccccc1 [toluene] | 863.67 ± 1 |
